Test results: patent US20090227616A1, “INHIBITORS OF AKT ACTIVITY” (SMITHKLINE BEECHAM CORPORATION, a corporation, priority 2005, published 2009)
Converted amounts (≈) assume the structure as drawn.

Tests used:
[1] = tested on: HFF (normal human foreskin fibroblast); assay: Methylene Blue Growth Inhibition Assay; assay type: cell-based; details: 72 h, 3 days
Description: (§1) Tumor cell lines used in this assay were BT474 (human breast carcinoma) and LNCaP (lymph node metastasis of prostate cancer). HFF (normal human foreskin fibroblast) was also included. All cell lines were cultured in RPMI 1640 media (Invitrogen Corporation 22400-071) containing 10% Fetal Bovine Serum (FBS) at 37° C. in a humidified 5% CO2 incubator. Cells were harvested using trypsin/EDTA, counted using a hemacytometer and plated in 96-well tissue culture plates (Costar 35-3075), 100 uL per well, at the following densities: BT474 15,000 cells/well, LNCaP 5,000 cells/well and HFF 5,000 cells/well. 10 mM stocks of compounds in DMSO were serially diluted in DMSO through nine 3-fold dilutions in 96-well plates (Costar Corning 3363), and stored at −80C. The next day, compound dilutions were thawed and 4 uL of each transferred to 662 uL RPMI 1640+100 ug/mL gentamicin, resulting in twice the final required test concentrations. 100 uL of compounds diluted in RPMI 1640 were added to all cell lines. The final concentration of DMSO in all wells, including controls, was 0.3%. Cells were incubated at 37C, 5% CO2 for 3 days. Medium was removed by aspiration. Cell biomass was estimated by staining cells with 80 uL methylene blue (Sigma M9140, 0.5% in 50:50 ethanol:water), and incubating at room temperature for 1 hour. Stain was aspirated and the plates rinsed by immersion in water, then air-dried. Stain was released from cells by adding 100 uL of solubilizing solution (1% N-lauroyl sarcosine, sodium salt, Sigma L5125, in PBS) and incubating at room temperature for at least 30 minutes. Plates were shaken and the optical density at 620 nm was measured on a microplate reader. Percent inhibition of cell growth was calculated relative to vehicle-treated control wells. Concentration of compound that inhibits 50% of cell growth (IC50) was interpolated using non-linear regression (Levenberg-Marquadt) and the equation, y=Vmax*(1−(x̂n/K̂n+x̂n)))+Y2. [Ref: Mager, M. E. (1972) Data Analysis in Biochemistry and Biophysics. New York: Academic Press]

[2] = tested on: BT474 (human breast carcinoma); assay: Methylene Blue Growth Inhibition Assay; assay type: cell-based; details: BT-474, 72 h, BT474, 3 days
Description: as §1

[3] = tested on: LNCaP (lymph node metastasis of prostate cancer); assay: Methylene Blue Growth Inhibition Assay; assay type: cell-based; details: Homo sapiens, 72 h, 3 days
Description: as §1

[4] = Solubility in 50 mM phosphate buffer at pH 7.4; assay type: physicochemical; details: aqueous buffer

IC50 [2] [µM]	IC50 [3] [µM]	solubility [4] [µM]	SMILES	IC50 [1] [µM]
			CCn1c(-c2nonc2N)nc2c(C#CC(C)(C)O)ncc(OCC3CCNCC3)c21 [Compound Y, 4-{2-(4-amino-1,2,5-oxadiazol-3-yl)-1-ethyl-7-[(4-piperidinylmethyl)oxy]-1H-imidazo[4,5-c]pyridin-4-yl}-2-methyl-3-butyn-2-ol, reference compound]	> 30
0.504	0.071	119 (≈ 47.5 µg/mL)	CCn1c(-c2nonc2N)nc2c(C#CC(C)(C)O)ncc(OCC[C@H](C)N)c21 [Example 9, 4-[7-{[(3S)-3-aminobutyl]oxy}-2-(4-amino-1,2,5-oxadiazol-3-yl)-1-ethyl-1H-imidazo[4,5-c]pyridin-4-yl]-2-methyl-3-butyn-2-ol]	14.5
0.508	0.058	86 (≈ 37.8 µg/mL)	CCn1c(-c2nonc2N)nc2c(C#CC(C)(C)O)ncc(OCCCNC3CCC3)c21 [Example 5, 4-(2-(4-amino-1,2,5-oxadiazol-3-yl)-7-{[3-(cyclobutylamino)propyl]oxy}-1-ethyl-1H-imidazo[4,5-c]pyridin-4-yl)-2-methyl-3-butyn-2-ol]	25.9
0.088	0.032	108 (≈ 47.7 µg/mL)	CCCCC(CN)COc1cnc(C#CC(C)(C)O)c2nc(-c3nonc3N)n(CC)c12 (stereo not shown) [Example 13, 4-[7-{[2-(aminomethyl)hexyl]oxy}-2-(4-amino-1,2,5-oxadiazol-3-yl)-1-ethyl-1H-imidazo[4,5-c]pyridin-4-yl]-2-methyl-3-butyn-2-ol]	6.65
			CCn1c(-c2nonc2N)nc2c(-c3ccccc3)ncc(OCCN3CCOCC3)c21 [Compound T, 4-(1-ethyl-7-([2-(4-morpholinyl)ethyl]oxy)-4-phenyl-1H-imidazo[4,5-c]pyridin-2-yl)-1,2,5-oxadiazol-3-amine, reference compound]	18.9
0.171	0.036	206 (≈ 88.1 µg/mL)	CCn1c(-c2nonc2N)nc2c(C#CC(C)(C)O)ncc(OCC[C@@H](N)C(C)C)c21 [Example 4, 4-[7-{[(3R)-3-amino-4-methylpentyl]oxy}-2-(4-amino-1,2,5-oxadiazol-3-yl)-1-ethyl-1H-imidazo[4,5-c]pyridin-4-yl]-2-methyl-3-butyn-2-ol]	8.1
0.295	0.052	210 (≈ 95.2 µg/mL)	CCn1c(-c2nonc2N)nc2c(C#CC(C)(C)O)ncc(OCCCNC3CCCC3)c21 [Example 3, 4-(2-(4-amino-1,2,5-oxadiazol-3-yl)-7-{[3-(cyclopentylamino)propyl]oxy}-1-ethyl-1H-imidazo[4,5-c]pyridin-4-yl)-2-methyl-3-butyn-2-ol]	> 30
0.051	0.061	112 (≈ 52.4 µg/mL)	CCn1c(-c2nonc2N)nc2c(C#CC(C)(C)O)ncc(OC(CCN)C3CCCCC3)c21 (stereo not shown) [Example 18, 4-[7-[(3-amino-1-cyclohexylpropyl)oxy]-2-(4-amino-1,2,5-oxadiazol-3-yl)-1-ethyl-1H-imidazo[4,5-c]pyridin-4-yl]-2-methyl-3-butyn-2-ol]	3.21
0.249	0.066	140 (≈ 61.5 µg/mL)	CCn1c(-c2nonc2N)nc2c(C#CC(C)(C)O)ncc(OCCCNCC3CC3)c21 [Example 10, 4-[2-(4-amino-1,2,5-oxadiazol-3-yl)-7-({3-[(cyclopropylmethyl)amino]propyl}oxy)-1-ethyl-1H-imidazo[4,5-c]pyridin-4-yl]-2-methyl-3-butyn-2-ol]	17.5
			CCn1c(-c2nonc2N)nc2c(-c3ccccc3)ncc(OCC(O)CN3CCOCC3)c21 (stereo not shown) [Compound S, 1-{[2-(4-amino-1,2,5-oxadiazol-3-yl)-1-ethyl-4-phenyl-1H-imidazo[4,5-c]pyridin-7-yl]oxy}-3-(4-morpholinyl)-2-propanol, reference compound]	> 30
0.225	0.057	203 (≈ 86.8 µg/mL)	CCCC(CN)COc1cnc(C#CC(C)(C)O)c2nc(-c3nonc3N)n(CC)c12 (stereo not shown) [Example 11, 4-[7-{[2-(aminomethyl)pentyl]oxy}-2-(4-amino-1,2,5-oxadiazol-3-yl)-1-ethyl-1H-imidazo[4,5-c]pyridin-4-yl]-2-methyl-3-butyn-2-ol]	15
0.593	0.066	27 (≈ 11.9 µg/mL)	CCn1c(-c2nonc2N)nc2c(C#CC(C)(C)O)ncc(OC[C@@H](C)CNC3CC3)c21 [Example 6, 4-(2-(4-amino-1,2,5-oxadiazol-3-yl)-7-{[(2S)-3-(cyclopropylamino)-2-methylpropyl]oxy}-1-ethyl-1H-imidazo[4,5-c]pyridin-4-yl)-2-methyl-3-butyn-2-ol]	11.5
0.192	0.007	179 (≈ 76.5 µg/mL)	CCCC(CCN)Oc1cnc(C#CC(C)(C)O)c2nc(-c3nonc3N)n(CC)c12 (stereo not shown) [Example 16, 4-[7-{[1-(2-aminoethyl)butyl]oxy}-2-(4-amino-1,2,5-oxadiazol-3-yl)-1-ethyl-1H-imidazo[4,5-c]pyridin-4-yl]-2-methyl-3-butyn-2-ol]	1.08
			CCn1c(-c2nonc2N)nc2c(C#CC(C)(C)O)ncc(OCCCCN)c21 [Compound W, 4-[7-[(4-aminobutyl)oxy]-2-(4-amino-1,2,5-oxadiazol-3-yl)-1-ethyl-1H-imidazo[4,5-c]pyridin-4-yl}-2-methyl-3-butyn-2-ol, reference compound]	22.1
			CCn1c(-c2nonc2N)nc2c(-c3ccccc3)ncc(OCCCN3CCOCC3)c21 [Compound R, 4-(1-ethyl-7-{[3-(4-morpholinyl)propyl]oxy}-4-phenyl-1H-imidazo[4,5-c]pyridin-2-yl)-1,2,5-oxadiazol-3-amine, reference compound]	19.9
			CCn1c(-c2nonc2N)nc2cncc(OC3CCNCC3)c21 [Compound U, 4-[1-ethyl-7-(piperidin-4-yloxy)-1H-imidazo[4,5-c]pyridine-2-yl]-furazan-3-ylamine, reference compound]	6.47
0.264	0.056	151 (≈ 73.3 µg/mL)	CCn1c(-c2nonc2N)nc2c(C#CC(C)(C)O)ncc(OCCC(N)C3CCSCC3)c21 (single isomer, unassigned; (-)) [Example 14, (−)-4-(2-(4-amino-1,2,5-oxadiazol-3-yl)-7-{[3-amino-3-(tetrahydro-2H-thiopyran-4-yl)propyl]oxy}-1-ethyl-1H-imidazo[4,5-c]pyridin-4-yl)-2-methyl-3-butyn-2-ol]	19.2
0.022	0.012	92 (≈ 37.1 µg/mL)	CCn1c(-c2nonc2N)nc2c(C#CC(C)(C)O)ncc(OCC(F)CN)c21 (single isomer, unassigned) [Example 17, 4-[7-[(3-amino-2-(−)-fluoropropyl)oxy]-2-(4-amino-1,2,5-oxadiazol-3-yl)-1-ethyl-1H-imidazo[4,5-c]pyridin-4-yl]-2-methyl-3-butyn-2-ol]	6.25
			CCn1c(-c2nonc2N)nc2c(C#CC(C)(C)O)ncc(OCCCNCCc3ccc(OC)cc3)c21 [Compound Z, 4-(2-(4-amino-1,2,5-oxadiazol-3-yl)-1-ethyl-7-{[3-({2-[4-(methyloxy)phenyl]ethyl}amino)propyl]oxy}-1H-imidazo[4,5-c]pyridin-4-yl)-2-methyl-3-butyn-2-ol, reference compound]	5.51
			CCn1c(-c2nonc2N)nc2c(C#CC(C)(C)O)ncc(OCCCN)c21 [Compound X, 4-{2-(4-amino-1,2,5-oxadiazol-3-yl)-7-[(3-aminopropyl)oxy]-1-ethyl-1H-imidazo[4,5-c]pyridin-4-yl}-2-methyl-3-butyn-2-ol, reference compound]	18.1
0.137	0.031	209 (≈ 86.4 µg/mL)	CCn1c(-c2nonc2N)nc2c(C#CC(C)(C)O)ncc(OCC(C)(C)CN)c21 [Example 7, 4-[7-[(3-amino-2,2-dimethylpropyl)oxy]-2-(4-amino-1,2,5-oxadiazol-3-yl)-1-ethyl-1H-imidazo[4,5-c]pyridin-4-yl]-2-methyl-3-butyn-2-ol]	26.2
			CCn1c(-c2nonc2N)nc2c(-c3ccccc3)ncc(OCC3CCCNC3)c21 (stereo not shown) [Compound V, 4-{1-ethyl-4-phenyl-7-[(3-piperidinylmethyl)oxy]-1H-imidazo-[4,5-c]pyridin-2-yl}-1,2,5-oxadiazol-3-amine, reference compound]	0.57
